According to article PMC7070167, “Cell‐permeable high‐affinity tracers for Gq proteins provide structural insights, reveal distinct binding kinetics and identify small molecule inhibitors” (British Journal of Pharmacology, 2020):
Where two headings read alike, the source gives them in different places. *1 amine or outer side, *2 acyl side, *3 side chain or, on linkers, in order; H or OH if unused. Where a SMILES comes first, the peptide text is derived from it. Bridges are numbered along the chain shown (N, C = ends). [ ]: non-standard residue; d: D form. The star is where a group is joined. Leu(3R-O(AcLeu(3R-OH))) = CC(=O)N[C@H](C(=O)O[C@H](C(C)C)[C@H](N)C(=O)O)[C@H](O)C(C)C; Leu(3R-OH,Nα-propionyl) = CCC(=O)N[C@H](C(=O)*)[C@H](O)C(C)C; X1 = CC(C)[C@@H](O[*:3])[C@H](N[*:1])C(=O)[*:2]; NMeT = CN[C@H](C(=O)O)[C@@H](C)O; dPhLac = O=C(O)[C@H](O)Cc1ccccc1; NMeA = CN[C@@H](C)C(=O)O; NMeDha = C=C(NC)C(=O)O

Biological target: T1, Gq proteins (Homo sapiens, UniProt P50148)
T1 construct: Native cell membrane preparations from rat brain cortex and human blood platelets; host or cells: human platelets (intact suspension or membrane preparation)
T1 sequence (P50148 1-359): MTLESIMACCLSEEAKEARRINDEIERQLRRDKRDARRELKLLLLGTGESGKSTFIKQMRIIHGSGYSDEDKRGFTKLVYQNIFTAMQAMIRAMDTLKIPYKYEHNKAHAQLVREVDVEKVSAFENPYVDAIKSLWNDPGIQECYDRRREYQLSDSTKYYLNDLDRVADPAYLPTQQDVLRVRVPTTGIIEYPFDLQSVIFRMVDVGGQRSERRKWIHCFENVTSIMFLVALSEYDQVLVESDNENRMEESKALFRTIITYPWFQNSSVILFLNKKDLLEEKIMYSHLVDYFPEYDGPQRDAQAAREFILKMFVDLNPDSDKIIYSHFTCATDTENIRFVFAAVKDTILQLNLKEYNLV
Experiment: Competition binding at intact human platelets
Conditions: 37°C
Description: Apheresis‐purified human thrombocyte‐plasma concentrates (PRP) were obtained from the blood bank, University of Bonn, in accordance with ethical guidelines, and directly used. For radioligand binding assays, they were diluted with 50‐mM Tris–HCl buffer, pH 7.4, to obtain a concentration of 7.5 × 10^6 platelets/50 μl (corresponding to a 1:10 dilution).
The experiments were performed in 50‐mM Tris–HCl buffer, pH 7.4. The final assay volume of 200 μl contained 5 μl of test compound in DMSO, 50 μl of [^3H]PSB‐15900 or [^3H]PSB‐16254, respectively, in buffer, 5 nM of final concentration, and 100 μl of human platelet membrane preparation (50 μg of protein) or intact human platelets (7.5 × 10^6 cells/vial). Non‐specific binding was determined in the presence of 5‐μM FR. The incubation was started by the addition of membrane preparation and was performed at 37°C for 1 hr with gentle shaking. It was terminated by rapid vacuum filtration through GF/C glass‐fibre filters using a Brandel 24‐well harvester. The filters were rinsed three times with approximately 3 ml each of ice‐cold Tris–HCl buffer, 50 mM, pH 7.4 containing 0.1% Tween 20 and 0.1% BSA, to separate bound from free radioligand. The filters were punched out and transferred to scintillation vials. Luma Safe® scintillation cocktail (2.5 ml) was added, and after 6 hr of incubation, the samples were counted for 1 min each, using a liquid scintillation counter (counting efficiency 53%). Experiments in the presence of GTP were additionally performed after preincubation of the membrane preparation with GTP for 1 hr. pIC50 and pKi values were calculated using equations for one‐site competition as implemented in GraphPad Prism 6.01 (GraphPad Inc., La Jolla, CA, USA).

[1] = versus [^3H]PSB‐15900 (5 nM), read-out: pKi (converted)
[2] = versus [³H]PSB-15900 (5 nM), read-out: Ki

## C=C1C(=O)N[C@@H](C)C(=O)N(C)[C@@H](C)C(=O)N[C@@H]([C@H](OC(=O)[C@@H](NC(C)=O)[C@H](O)C(C)C)C(C)C)C(=O)N(C)[C@@H]([C@@H](C)OC)C(=O)O[C@H](C)[C@H](NC(C)=O)C(=O)O[C@H](Cc2ccccc2)C(=O)N1C [YM, YM‐254890] (Ac-T[dPhLac][NMeDha]A[NMeA][Leu(3R-O(AcLeu(3R-OH)))][NMeT](Me); ester 1-C)
[1]
  Ki: 2.09 nM
[2]
  Ki: 2.29 ± 0.38 nM

## C=C1C(=O)N[C@@H](C)C(=O)N(C)[C@@H](C)C(=O)N[C@@H]([C@H](OC(=O)[C@@H](NC(=O)CC)[C@H](O)C(C)C)C(C)C)C(=O)N(C)[C@@H]([C@@H](C)OC)C(=O)O[C@H](C(C)C)[C@H](NC(C)=O)C(=O)O[C@H](Cc2ccccc2)C(=O)N1C [FR, FR900359] (Ac-[X1][dPhLac][NMeDha]A[NMeA][X1](Leu(3R-OH,Nα-propionyl))[NMeT](Me); ester 1-C)
[1]
  Ki: 2.09 nM
[2]
  Ki: 2.14 ± 0.87 nM
